Source: publication PMC10096344 (Molecules, 2023)

Columns and labels:
[1] = tested on: P. aeruginosa (ATCC27853) biofilm; assay: Bacterial biofilm formation (FITC staining, crystal violet staining); assay type: cell-based, Pseudomonas aeruginosa; settings: with 10 μg/mL LP4C
Method: The bacterial biofilm growth and measurement was performed according to our previously reported method. Briefly, P. aeruginosa (ATCC27853) was cultured in the tube with nutrient broth containing 2% (w/v) glucose, shaken at 220 rpm for 12 h at 37 °C. The suspension was diluted to 1 × 10^6 CFU/mL and added to 96-well plates, the bacteria was cultured for 24 h at 37 °C for biofilm growth and the planktonic bacterial of each well was removed by PBS rinsing three times. To observe the biofilm formation, the fluorescein isothiocyanate (FITC) was added into the plates and incubated for 2 h at 37 °C; the labeled biofilm was then washed by PBS and visualized under the fluorescence microscopy (Olympus CKX53, Tokyo, Japan). The measurement of biofilm was performed according to the following procedure: the mature biofilm was fixed with 150 μL methanol and left to air dry, then stained with 150 μL of 1% (w/v) crystal violet solution for 15 min at room temperature. The plate was rinsed with PBS three times and 150 μL of glacial acetic acid was added to each well; the optical density was measured at 630 nm optical density using a microplate reader (Bio-Tek ELX800, Berten, USA).

[2] = tested on: P. aeruginosa (ATCC27853); assay: Anti-bacterial activity, inhibition zone diameter on agar; assay type: cell-based, Pseudomonas aeruginosa; settings: for growth inhibition / bactericidal activity (inhibition zone): reference antibiotic 10 μg/mL
Method: P. aeruginosa (ATCC27853) was cultured in 3 mL LB culture medium, shaken at 220 rpm for 12 h at 37 °C and diluted to 1 × 10^6 CFU/mL. The culture disk was coated with 1% agar, and 100 μL bacterial suspension was added to the agar in the disk evenly. […] LP4C or reference antibiotics were then added in each hole. The disk was cultured for 12–16 h at 37 °C; the result was then observed and the inhibition zone diameter was measured.

[3] = tested on: P. aeruginosa PAO1 strain; set-up: method as in PMID 21852522; settings: cited from earlier work
[4] = supplementation 1, 10 and 100 μM

SMILES	reversal of biofilm formation impaired by LP4C [1, 4]	growth inhibition / bactericidal activity (inhibition zone) [2]	further results
O=c1ccn([C@@H]2O[C@H](CO[P@@](=O)(O)O[P@@](=O)(O)OP(=O)(O)O)[C@@H](O)[C@H]2O)c(=O)[nH]1 (stereo in doubt) [UTP, uridine triphosphate, reference compound]	could reverse the biofilm formation ability impaired by 10 μg/mL LP4C		
O=c1ccn([C@@H]2O[C@H](COP(=O)(O)O)[C@@H](O)[C@H]2O)c(=O)[nH]1 [UMP, uridine monophosphate, reference compound]	could reverse the biofilm formation ability impaired by 10 μg/mL LP4C		
CC(C)(O/N=C(\C(=O)N[C@@H]1C(=O)N2C(C(=O)[O-])=C(C[n+]3ccccc3)CS[C@H]12)c1csc(N)n1)C(=O)O [ceftazidime]		no bactericidal activity	
C[C@@H](O)[C@H]1C(=O)N2C(C(=O)O)=C(SCCN=CN)C[C@H]12 [imipenem]		could inhibit the growth of P. aeruginosa obviously	zone of inhibition at 10 µg/mL ([2]; Pseudomonas aeruginosa, ATCC27853, 10 μg/mL, value printed in Figure 1A): 29.4 mm
CC(C)=CC[C@@H](O)C1=CC(=O)c2c(O)ccc(O)c2C1=O [shikonin]			concentration that inhibits biofilm formation [3]: 200 µM
O=c1cc[nH]c(=O)[nH]1 [uracil, reference compound]			reversal of biofilm formation impaired by LP4C ([1]; supplementation 10 and 100 μM): could reverse the biofilm formation ability impaired by 10 μg/mL LP4C
